Test results published in patent publication US8642350B2, “Sensor material and uses thereof to simultaneously sense two analytes: oxygen and pH or acidic/basic gaseous ions” (University College Cork, National University of Ireland, …, priority 2010, dated 2014).

How the values were obtained:
Assay type in all cases: physicochemical
[1] = Absorption and emission spectra of thin film sensor coatings; conditions: solid state sensor form
Description: On the other hand, protonation of the peripheral group (Schiff base) leads to the formation of a delocalised carbocation represented by 10 resonant structures. This process is accompanied by major spectral changes: a shift in absorbance peak from 398 nm to 443 nm and the disappearance of the porphyrin type of electronic spectra and phosphorescence. The process is reversible and potentially allows for sensing of the protonation or pH changes by means of absorbance or phosphorescence measurements.
(§1) This cocktail of sensor components was applied in 2 μl aliquots on a solid support (e.g. Mylar® foil or microporous polymeric membrane) and left to evaporate all the solvents. […] Other sensor formulations can also be used, such formulations are known to specialists in the area.
(§2) Thin film (˜5 μm) sensor coatings produced according to Table 1 were studied for their photophysical, O2 and pH sensing properties.

[2] = Oxygen calibration by phosphorescence lifetime (quenching by dissolved O2); conditions: for quenching by dissolved O2: sensors in aqueous solutions, 0-21 kPa O2; for Lifetime 0% O2 / Lifetime 21% O2: solid state sensor form; for Lifetime 0% O2: 0% O2, 24° C.; for Lifetime 21% O2: 21% O2, 24° C.
Experimental: (§3) FIG. 2: Oxygen calibration in the phosphorescence lifetime (A) and Stern-Volmer (right) scales for the Pt-OEP-CH═N—CH3 (♦) and Pd-OEP-CH═N—CH3 (▪) sensors, measured in sodium acetate, pH 6 at 24° C. (B). pH calibration of Pt-OEP-CH═N—CH3 (absorbance) at certain pH steps, the two black bars show the bandwidth of commercial LEDs at 400 nm and 450 nm (C) and of Pt-OEP-CH═N—CH3 (♦) and Pd-OEP-CH═N—CH3 (▪) at 24° C. and 30° C. respectively (emission intensity) (D), measured in sodium acetate.
as §1, §2
The unquenched phosphorescence lifetime of 70 μs in O2-free buffer (at 24° C.) was close to that of the other Pt-porphyrins and O2 sensors on their basis. In air-saturated solution (20.9 kPa or 250 μM) the lifetime was reduced by approximately 60%. […] Full O2 calibrations of the two sensors show a pronounced non-linearity of Stern-Volmer plots (in FIG. 2B).

[3] = pH calibration (pKa) of solid state sensors by absorbance / phosphorescence intensity; conditions: for pH range covered by the sensor: air-saturated buffer; for pKa value (21% O2) 0 mM NaCl / pKa value (21% O2) 500 mM NaCl: solid state sensor form
Experimental: as §3, §1, §2
With respect to their pH sensitivity, the two sensors produced the anticipated spectral responses which occurred in the useful range of pH. […] However, the decrease in phosphorescence intensity signal occurred without any significant changes in the phosphorescence lifetime.

| SMILES | Emission [1] [nm] | Absorption ([1]; pH 2.0) | Absorption ([1]; pH 8.0) | reduction of lifetime in air-saturated solution ([2]; air-saturated solution (20.9 kPa or 250 μM O2)) | unquenched phosphorescence lifetime ([2]; sensor in O2-free buffer, 24° C.) [μs] | quenching by dissolved O2 [2] | Lifetime 0% O2 [2] | Lifetime 21% O2 [2] | pH range covered by the sensor ([3]; 24° C.) | pKa more acidic than the Pd-OEP-CH═N—CH3 sensor ([3]; difference between the two sensors) [pH unit] | pKa value (21% O2) 0 mM NaCl ([3]; 24° C.) | pKa value (21% O2) 0 mM NaCl ([3]; 30° C.) | pKa value (21% O2) 500 mM NaCl ([3]; 30° C.) | cross-sensitivity of O2 response to pH ([2]; phosphorescence lifetime modality) | O2 range the dual-analyte sensor is well suited for ([2]; physiological range) [µM] | unquenched lifetime ([2]; sensor, unquenched) [µs] | pH range the dual-analyte sensor is well suited for ([3]; physiological range) | pKa value (21% O2) 500 mM NaCl ([3]; 24° C.) |
| --- | --- | --- | --- | --- | --- | --- | --- | --- | --- | --- | --- | --- | --- | --- | --- | --- | --- | --- |
| CCC1=C(CC)c2cc3[n-]c(c(C=NC)c4nc(cc5[n-]c(cc1n2)c(CC)c5CC)C(CC)=C4CC)c(CC)c3CC.[Pt+2] [Pt—OEP—CH═NMe] | 670 | 443 (pH 2.0) nm | 398 (pH 8.0) nm | approximately 60% | 70 | moderate quenching | 60 (24° C.) μs | 36 (24° C.) μs | 5-7 | ~1 | 4.3 (24° C.) | 5.9 (30° C.) | 5.5 (30° C.) |  |  |  |  |  |
| CN=CC1=C2N=C(C=c3c(C)c(CCC(=O)OC)c4[n]3[Pd][n]3c(c(C)c(CCC(=O)OC)c31)C=C1N=C(C=4)C(C)=C1CCC(=O)OC)C(CCC(=O)OC)=C2C [Pd—CPE—CH═NMe] | 673 | 443 (pH 2.0) nm | 398 (pH 8.0) nm |  |  | more favorable quenchability | 172 (24° C.) μs | 33 (24° C.) μs | 6.5-8.0 |  | 5.9 (24° C.) | 6.9 (30° C.) | 6.5 (30° C.) | no cross-sensitivity to pH | 0 to 200 | 147 | 6-8 | 5.5 (24° C.) |
